Where two headings read alike, the source gives them in different places. Positions of bridges follow the written chain, without caps; N, C: chain ends. Non-standard residues stand in square brackets, D forms with d. Residues, ends and D or L forms follow the SMILES beside them. 1Nal = N[C@@H](Cc1cccc2ccccc12)C(=O)O Some results are limits rather than exact numbers.

Holding throughout (test): cell-based
One assay deals with hNav1.7 (Homo sapiens, UniProt Q15858). It counts as cell-based.
A further assay concerns the target hNav1.5 (Homo sapiens, UniProt Q14524).
For a further assay, the target named is hNav1.3 (Homo sapiens, UniProt Q9NY46). The settings on record: IonWorks Quattro, read-out: IWQ Use Nav1.3. A general note: Patch clamp records ionic current or voltage across a cell membrane.
Sequence of hNav1.3 (Q9NY46 whole entry, looked up): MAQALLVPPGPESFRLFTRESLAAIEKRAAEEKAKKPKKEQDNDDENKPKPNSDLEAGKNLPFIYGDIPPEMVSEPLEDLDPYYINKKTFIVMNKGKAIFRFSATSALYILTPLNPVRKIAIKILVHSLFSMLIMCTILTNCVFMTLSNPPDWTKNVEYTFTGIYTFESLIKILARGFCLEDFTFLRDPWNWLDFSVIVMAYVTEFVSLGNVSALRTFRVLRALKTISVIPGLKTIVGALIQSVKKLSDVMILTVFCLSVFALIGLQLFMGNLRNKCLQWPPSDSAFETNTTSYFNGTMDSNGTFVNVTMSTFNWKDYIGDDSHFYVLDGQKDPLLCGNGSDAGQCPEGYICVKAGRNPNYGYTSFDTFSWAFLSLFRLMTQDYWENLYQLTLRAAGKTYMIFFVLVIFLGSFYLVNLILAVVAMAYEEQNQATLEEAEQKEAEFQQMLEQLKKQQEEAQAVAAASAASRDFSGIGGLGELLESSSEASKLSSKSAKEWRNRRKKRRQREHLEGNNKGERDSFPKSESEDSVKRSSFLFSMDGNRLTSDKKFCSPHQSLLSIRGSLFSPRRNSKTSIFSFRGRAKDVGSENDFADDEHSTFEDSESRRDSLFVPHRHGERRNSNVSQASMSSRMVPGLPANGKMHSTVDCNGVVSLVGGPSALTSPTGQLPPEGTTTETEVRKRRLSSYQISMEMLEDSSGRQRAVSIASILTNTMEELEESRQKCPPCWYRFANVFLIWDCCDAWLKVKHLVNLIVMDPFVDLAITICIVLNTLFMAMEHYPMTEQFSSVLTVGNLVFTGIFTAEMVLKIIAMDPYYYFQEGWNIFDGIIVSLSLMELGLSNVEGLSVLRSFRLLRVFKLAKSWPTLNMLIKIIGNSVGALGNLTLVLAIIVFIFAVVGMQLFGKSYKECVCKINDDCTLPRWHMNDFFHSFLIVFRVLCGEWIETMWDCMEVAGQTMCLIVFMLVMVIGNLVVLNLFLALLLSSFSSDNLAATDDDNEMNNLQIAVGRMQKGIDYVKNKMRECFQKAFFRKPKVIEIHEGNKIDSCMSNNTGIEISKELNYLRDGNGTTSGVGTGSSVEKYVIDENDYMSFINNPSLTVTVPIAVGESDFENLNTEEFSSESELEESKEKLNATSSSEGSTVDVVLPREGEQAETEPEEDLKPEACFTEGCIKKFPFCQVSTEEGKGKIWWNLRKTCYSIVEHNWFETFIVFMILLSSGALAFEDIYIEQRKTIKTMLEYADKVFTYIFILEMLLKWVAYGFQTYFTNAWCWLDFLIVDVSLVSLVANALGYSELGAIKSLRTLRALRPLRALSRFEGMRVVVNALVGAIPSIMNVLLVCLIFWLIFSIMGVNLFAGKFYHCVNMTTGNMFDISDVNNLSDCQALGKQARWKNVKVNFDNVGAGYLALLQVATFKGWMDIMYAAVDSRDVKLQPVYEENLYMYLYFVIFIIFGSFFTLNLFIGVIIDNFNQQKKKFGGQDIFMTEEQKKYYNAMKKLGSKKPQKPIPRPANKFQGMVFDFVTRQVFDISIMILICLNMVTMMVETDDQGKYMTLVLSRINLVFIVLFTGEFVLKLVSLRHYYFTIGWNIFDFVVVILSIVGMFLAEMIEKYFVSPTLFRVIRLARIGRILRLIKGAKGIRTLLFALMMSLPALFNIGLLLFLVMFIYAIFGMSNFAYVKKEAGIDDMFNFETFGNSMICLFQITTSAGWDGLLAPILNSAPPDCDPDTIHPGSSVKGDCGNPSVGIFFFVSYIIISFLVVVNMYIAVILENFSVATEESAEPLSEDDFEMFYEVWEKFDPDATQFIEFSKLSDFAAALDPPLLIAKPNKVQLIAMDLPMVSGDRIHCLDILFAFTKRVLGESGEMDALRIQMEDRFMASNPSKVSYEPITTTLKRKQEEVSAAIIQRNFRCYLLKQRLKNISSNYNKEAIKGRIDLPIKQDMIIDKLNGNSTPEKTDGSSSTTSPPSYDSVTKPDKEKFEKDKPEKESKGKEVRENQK
Where [1] appears, read: IonWorks Quattro, use-dependent block, hNav1.7, read-out: IWQ Use Nav1.7.
Setting [2] is: IonWorks Quattro, use-dependent block, hNav1.5, read-out: IWQ Use Nav1.5.

Sequence of hNav1.5 (Q14524 whole entry, looked up): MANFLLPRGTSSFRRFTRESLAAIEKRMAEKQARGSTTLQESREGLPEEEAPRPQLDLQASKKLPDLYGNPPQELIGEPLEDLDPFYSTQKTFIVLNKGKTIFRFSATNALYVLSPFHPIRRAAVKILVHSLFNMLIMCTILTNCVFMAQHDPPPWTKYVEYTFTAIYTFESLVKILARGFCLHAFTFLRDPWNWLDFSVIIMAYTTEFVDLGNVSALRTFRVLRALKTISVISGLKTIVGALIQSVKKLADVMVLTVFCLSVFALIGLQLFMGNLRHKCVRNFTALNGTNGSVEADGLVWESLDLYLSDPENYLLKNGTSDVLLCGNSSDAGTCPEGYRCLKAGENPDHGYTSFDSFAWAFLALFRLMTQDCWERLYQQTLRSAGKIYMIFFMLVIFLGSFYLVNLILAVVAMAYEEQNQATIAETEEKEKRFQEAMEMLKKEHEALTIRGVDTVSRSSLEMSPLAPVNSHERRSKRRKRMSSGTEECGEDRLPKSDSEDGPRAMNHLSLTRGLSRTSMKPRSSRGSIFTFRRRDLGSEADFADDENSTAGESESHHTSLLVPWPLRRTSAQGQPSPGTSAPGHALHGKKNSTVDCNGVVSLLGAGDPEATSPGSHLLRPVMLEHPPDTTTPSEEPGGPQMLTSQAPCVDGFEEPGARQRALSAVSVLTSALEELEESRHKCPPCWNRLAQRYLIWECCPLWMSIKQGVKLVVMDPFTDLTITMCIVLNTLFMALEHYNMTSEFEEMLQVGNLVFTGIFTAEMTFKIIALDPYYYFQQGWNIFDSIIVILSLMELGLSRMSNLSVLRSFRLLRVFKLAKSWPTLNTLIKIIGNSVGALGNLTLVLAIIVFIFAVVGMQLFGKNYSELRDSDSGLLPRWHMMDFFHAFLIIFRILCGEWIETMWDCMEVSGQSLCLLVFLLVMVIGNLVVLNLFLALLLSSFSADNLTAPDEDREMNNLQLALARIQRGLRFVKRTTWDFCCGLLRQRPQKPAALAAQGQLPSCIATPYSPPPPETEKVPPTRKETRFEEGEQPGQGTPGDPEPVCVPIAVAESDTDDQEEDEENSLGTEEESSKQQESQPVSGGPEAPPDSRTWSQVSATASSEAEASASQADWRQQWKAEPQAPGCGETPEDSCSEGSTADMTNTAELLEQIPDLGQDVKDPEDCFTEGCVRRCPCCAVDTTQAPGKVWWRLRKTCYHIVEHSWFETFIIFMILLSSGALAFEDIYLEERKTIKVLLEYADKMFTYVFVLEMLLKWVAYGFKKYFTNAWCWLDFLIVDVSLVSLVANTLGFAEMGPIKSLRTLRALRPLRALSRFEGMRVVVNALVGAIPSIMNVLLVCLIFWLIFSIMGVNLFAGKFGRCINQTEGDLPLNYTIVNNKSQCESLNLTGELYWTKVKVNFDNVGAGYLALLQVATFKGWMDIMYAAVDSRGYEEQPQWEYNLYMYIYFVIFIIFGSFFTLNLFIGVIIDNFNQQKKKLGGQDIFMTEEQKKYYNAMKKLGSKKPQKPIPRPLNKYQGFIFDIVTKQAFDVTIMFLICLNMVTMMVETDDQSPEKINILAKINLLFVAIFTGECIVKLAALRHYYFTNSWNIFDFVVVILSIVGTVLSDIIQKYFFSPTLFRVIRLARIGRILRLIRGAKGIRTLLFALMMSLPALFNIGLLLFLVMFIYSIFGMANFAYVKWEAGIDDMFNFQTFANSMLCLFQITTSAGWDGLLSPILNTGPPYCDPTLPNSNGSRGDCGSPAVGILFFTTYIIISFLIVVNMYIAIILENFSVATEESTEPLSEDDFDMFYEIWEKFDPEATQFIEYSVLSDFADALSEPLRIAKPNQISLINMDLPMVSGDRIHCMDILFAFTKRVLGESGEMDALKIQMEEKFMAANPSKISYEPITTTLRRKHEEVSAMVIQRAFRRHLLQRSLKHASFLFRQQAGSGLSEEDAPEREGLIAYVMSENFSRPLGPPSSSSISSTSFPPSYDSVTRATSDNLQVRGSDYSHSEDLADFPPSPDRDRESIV

As to `CC[C@H](C)[C@@H]1NC(=O)[C@@H]2CSSC[C@@H]3NC(=O)[C@H](C(C)C)NC(=O)[C@H](CC(C)C)NC(=O)[C@H](CC(N)=O)NC(=O)[C@@H]4CCCN4C(=O)[C@H](CCCNC(=N)N)NC(=O)[C@H](CSSC[C@H](NC(=O)[C@@H](N)CC(=O)O)C(=O)N[C@@H](CC(C)C)C(=O)NCC(=O)N[C@@H](Cc4ccccc4)C(=O)N[C@@H](CCSC)C(=O)N[C@@H](CCCNC(=N)N)C(=O)N[C@@H](CCCCN)C(=O)N2)NC(=O)[C@H](CSSC[C@@H](C(=O)N[C@@H](CCCCN)C(=O)N[C@@H](Cc2ccc(O)cc2)C(=O)N[C@@H](CC(=O)O)C(=O)N[C@@H](Cc2ccccc2)C(N)=O)NC(=O)[C@H](Cc2c[nH]c4ccccc24)NC(=O)[C@H](CCCCN)NC(=O)[C@H](Cc2c[nH]cn2)NC(=O)[C@H]([C@@H](C)O)NC(=O)[C@H](CCCNC(=N)N)NC(=O)[C@H](CO)NC3=O)NC(=O)[C@H](CCCCN)NC(=O)[C@H](CC(=O)O)NC(=O)[C@H](CC(N)=O)NC(=O)[C@H](CC(=O)O)NC(=O)[C@@H]2CCCN2C1=O` [compound 395] (H-DCLGFMRKCIPDNDKCCRPNLVCSRTHKWCKYDF-NH2; disulfide 2-17, 9-23, 16-30), the IC50 at hNav1.7 (Table 26, IonWorks Quattro, use, […], read-out: IWQ Use Nav1.7) came to 770 nM; on hNav1.5 (Table 26, IonWorks Quattro, use, […], read-out: IWQ Use Nav1.5) it was 8.79 µM; on hNav1.3 (Table 26, use, […]), 170 nM.
With `CC[C@H](C)[C@@H]1NC(=O)[C@@H]2CSSC[C@@H]3NC(=O)[C@H](C(C)C)NC(=O)[C@H](CC(C)C)NC(=O)[C@H](CC(N)=O)NC(=O)[C@@H]4CCCN4C(=O)[C@H](CCCNC(=N)N)NC(=O)[C@H](CSSC[C@H](NC(=O)[C@@H](N)CC(=O)O)C(=O)N[C@@H](CC(C)C)C(=O)NCC(=O)N[C@@H](Cc4ccccc4)C(=O)N[C@@H](CCSC)C(=O)N[C@@H](CCCNC(=N)N)C(=O)N[C@@H](CCCNC(=N)N)C(=O)N2)NC(=O)[C@H](CSSC[C@@H](C(=O)N[C@@H](CCCCN)C(=O)N[C@@H](Cc2ccc(O)cc2)C(=O)N[C@H](C(=O)N[C@@H](Cc2ccccc2)C(N)=O)C(C)C)NC(=O)[C@H](Cc2c[nH]c4ccccc24)NC(=O)[C@H](CCCCN)NC(=O)[C@H](Cc2cnc[nH]2)NC(=O)[C@H]([C@@H](C)O)NC(=O)[C@H](CCCNC(=N)N)NC(=O)[C@H](CO)NC3=O)NC(=O)[C@H](CCCCN)NC(=O)[C@H](CC(=O)O)NC(=O)[C@H](CC(N)=O)NC(=O)[C@H](CC(=O)O)NC(=O)[C@@H]2CCCN2C1=O` [[Arg8]GpTx-1(1-34)] (H-DCLGFMRRCIPDNDKCCRPNLVCSRTHKWCKYVF-NH2; disulfide 2-17, 9-23, 16-30), the IC50 on hNav1.7 (setting [1]) turned out to be 140 nM; at hNav1.5 (setting [2]), 13.8 µM; at hNav1.3 (use-dependent block, hNav1.3), 120 nM.
For the molecule `CC[C@H](C)[C@@H]1NC(=O)[C@@H]2CSSC[C@@H]3NC(=O)[C@H](C(C)C)NC(=O)[C@H](CC(C)C)NC(=O)[C@H](CC(N)=O)NC(=O)[C@@H]4CCCN4C(=O)[C@H](CCCNC(=N)N)NC(=O)[C@H](CSSC[C@H](NC(=O)[C@@H](N)CC(=O)O)C(=O)N[C@@H](CC(C)C)C(=O)NCC(=O)N[C@@H](Cc4ccccc4)C(=O)N[C@@H](CCSC)C(=O)N[C@@H](CCCNC(=N)N)C(=O)N[C@@H](CCCCN)C(=O)N2)NC(=O)[C@H](CSSC[C@@H](C(=O)N[C@@H](CCCCN)C(=O)N[C@@H](Cc2cccc4ccccc24)C(=O)N[C@@H](Cc2c[nH]c4ccccc24)C(=O)N[C@@H](Cc2ccccc2)C(N)=O)NC(=O)[C@H](Cc2c[nH]c4ccccc24)NC(=O)[C@H](CCCCN)NC(=O)[C@H](Cc2c[nH]cn2)NC(=O)[C@H]([C@@H](C)O)NC(=O)[C@H](CCCNC(=N)N)NC(=O)[C@H](CO)NC3=O)NC(=O)[C@H](CCCCN)NC(=O)[C@H](CC(=O)O)NC(=O)[C@H](CC(N)=O)NC(=O)[C@H](CC(=O)O)NC(=O)[C@@H]2CCCN2C1=O` [compound 460] (H-DCLGFMRKCIPDNDKCCRPNLVCSRTHKWCK[1Nal]WF-NH2; disulfide 2-17, 9-23, 16-30), the IC50 on hNav1.7 (setting [1]) is 80 nM; on hNav1.5 (setting [2]), over 5 µM; on hNav1.3 (use-dependent block, hNav1.3), 30 nM.
Take `CC[C@H](C)[C@@H]1NC(=O)[C@@H]2CSSC[C@@H]3NC(=O)[C@H](C(C)C)NC(=O)[C@H](CC(C)C)NC(=O)[C@H](CC(N)=O)NC(=O)[C@@H]4CCCN4C(=O)[C@H](CCCNC(=N)N)NC(=O)[C@H](CSSC[C@H](NC(=O)[C@@H](N)CC(=O)O)C(=O)N[C@@H](CC(C)C)C(=O)NCC(=O)N[C@@H](Cc4ccccc4)C(=O)N[C@@H](CCSC)C(=O)N[C@@H](CCCNC(=N)N)C(=O)N[C@@H](CCCCN)C(=O)N2)NC(=O)[C@H](CSSC[C@@H](C(=O)N[C@@H](CCCNC(=N)N)C(=O)N[C@@H](Cc2ccc(O)cc2)C(=O)N[C@H](C(=O)N[C@@H](Cc2ccccc2)C(N)=O)C(C)C)NC(=O)[C@H](Cc2c[nH]c4ccccc24)NC(=O)[C@H](CCCCN)NC(=O)[C@H](Cc2cnc[nH]2)NC(=O)[C@H]([C@@H](C)O)NC(=O)[C@H](CCCNC(=N)N)NC(=O)[C@H](CO)NC3=O)NC(=O)[C@H](CCCCN)NC(=O)[C@H](CC(=O)O)NC(=O)[C@H](CC(N)=O)NC(=O)[C@H](CC(=O)O)NC(=O)[C@@H]2CCCN2C1=O` [compound 73] (H-DCLGFMRKCIPDNDKCCRPNLVCSRTHKWCRYVF-NH2; disulfide 2-17, 9-23, 16-30): the IC50 on hNav1.7 (Table 25, IonWorks Quattro, use, […], read-out: IWQ Use Nav1.7) is 1360 nM; at hNav1.5 (Table 25, IonWorks Quattro, use, […], read-out: IWQ Use Nav1.5), 9.17 µM; at hNav1.3 (Table 25, use, […]) it was 4950 nM.
As for `CC[C@H](C)[C@@H]1NC(=O)[C@@H]2CSSC[C@@H]3NC(=O)[C@H](C(C)C)NC(=O)[C@H](CC(C)C)NC(=O)[C@H](CC(N)=O)NC(=O)[C@@H]4CCCN4C(=O)[C@H](CCCNC(=N)N)NC(=O)[C@H](CSSC[C@H](NC(=O)[C@@H](N)CC(=O)O)C(=O)N[C@@H](CC(C)C)C(=O)NCC(=O)N[C@@H](Cc4ccccc4)C(=O)N[C@@H](CCSC)C(=O)N[C@@H](CCCNC(=N)N)C(=O)N[C@@H](CCCCN)C(=O)N2)NC(=O)[C@H](CSSC[C@@H](C(=O)N[C@@H](C)C(=O)N[C@@H](Cc2ccc(O)cc2)C(=O)N[C@H](C(=O)N[C@@H](Cc2ccccc2)C(N)=O)C(C)C)NC(=O)[C@H](Cc2c[nH]c4ccccc24)NC(=O)[C@H](CCCCN)NC(=O)[C@H](Cc2cnc[nH]2)NC(=O)[C@H]([C@@H](C)O)NC(=O)[C@H](CCCNC(=N)N)NC(=O)[C@H](CO)NC3=O)NC(=O)[C@H](CCCCN)NC(=O)[C@H](CC(=O)O)NC(=O)[C@H](CC(N)=O)NC(=O)[C@H](CC(=O)O)NC(=O)[C@@H]2CCCN2C1=O` [compound 13] (H-DCLGFMRKCIPDNDKCCRPNLVCSRTHKWCAYVF-NH2; disulfide 2-17, 9-23, 16-30), the IC50 at hNav1.7 came out at 7940 nM; against hNav1.5 (IWQ Use Nav1.5 (μM)), 14.5 µM; on hNav1.3 (Table 25, use, […]), 7390 nM.
On to `CC[C@H](C)[C@@H]1NC(=O)[C@@H]2CSSC[C@@H]3NC(=O)[C@H](C(C)C)NC(=O)[C@H](CC(C)C)NC(=O)[C@H](CC(N)=O)NC(=O)[C@@H]4CCCN4C(=O)[C@H](CCCNC(=N)N)NC(=O)[C@H](CSSC[C@H](NC(=O)[C@@H](N)CC(=O)O)C(=O)N[C@@H](CC(C)C)C(=O)NCC(=O)N[C@@H](CC4CCCCC4)C(=O)N[C@@H](CC(C)C)C(=O)N[C@@H](CCCNC(=N)N)C(=O)N[C@@H](CCCCN)C(=O)N2)NC(=O)[C@H](CSSC[C@@H](C(=O)N[C@@H](CCCCN)C(=O)N[C@@H](Cc2ccc(O)cc2)C(=O)N[C@H](C(=O)N[C@@H](Cc2ccccc2)C(N)=O)C(C)C)NC(=O)[C@H](Cc2c[nH]c4ccccc24)NC(=O)[C@H](CCCCN)NC(=O)[C@H](Cc2c[nH]cn2)NC(=O)[C@H]([C@@H](C)O)NC(=O)[C@H](CCCNC(=N)N)NC(=O)[C@H](CO)NC3=O)NC(=O)[C@H](CCCCN)NC(=O)[C@H](CC(=O)O)NC(=O)[C@H](CC(N)=O)NC(=O)[C@H](CC(=O)O)NC(=O)[C@@H]2CCCN2C1=O` [compound 681], for which the IC50 was 23 nM on hNav1.7 (IonWorks Quattro, use-dependent protocol, hNav1.7, read-out: IWQ Use Nav1.7); over 5 µM at hNav1.5 (IonWorks Quattro, use-dependent protocol, hNav1.5, read-out: IWQ Use Nav1.5); 79 nM at hNav1.3 (use-dependent protocol, hNav1.3).
On to `CC[C@H](C)[C@@H]1NC(=O)[C@@H]2CSSC[C@@H]3NC(=O)[C@H](CCCCN)NC(=O)[C@H](CC(C)C)NC(=O)[C@H](CC(N)=O)NC(=O)[C@@H]4CCCN4C(=O)[C@H](CCCNC(=N)N)NC(=O)[C@H](CSSC[C@H](NC(=O)[C@@H](N)CC(=O)O)C(=O)N[C@@H](CC(C)C)C(=O)NCC(=O)N[C@@H](Cc4ccccc4)C(=O)N[C@@H](CCSC)C(=O)N[C@@H](CCCNC(=N)N)C(=O)N[C@@H](CCCCN)C(=O)N2)NC(=O)[C@H](CSSC[C@@H](C(=O)N[C@@H](CCCCN)C(=O)N[C@@H](Cc2ccc(O)cc2)C(=O)N[C@H](C(=O)N[C@@H](Cc2ccccc2)C(N)=O)C(C)C)NC(=O)[C@H](Cc2c[nH]c4ccccc24)NC(=O)[C@H](CCCCN)NC(=O)[C@H](Cc2cnc[nH]2)NC(=O)[C@H]([C@@H](C)O)NC(=O)[C@H](CCCNC(=N)N)NC(=O)[C@H](CO)NC3=O)NC(=O)[C@H](CCCCN)NC(=O)[C@H](CC(=O)O)NC(=O)[C@H](CC(N)=O)NC(=O)[C@H](CC(=O)O)NC(=O)[C@@H]2CCCN2C1=O` [compound 52] (H-DCLGFMRKCIPDNDKCCRPNLKCSRTHKWCKYVF-NH2; disulfide 2-17, 9-23, 16-30), for which the IC50 against hNav1.7 is 190 nM; at hNav1.5 (IonWorks Quattro, Use, read-out: IWQ Use Nav1.5) it was 15 µM; at hNav1.3 (Use), 80 nM.

(Values after patent publication US9340590B2 (priority 2011, dated 2016).)
